Laboratory results published in the supplement of paper PMC13207355.

Experiments:
Conditions in all cases: exposure time: 72 h
FT3469 [1] = normal neural stem cell line; experiment: surviving fraction (nuclei count normalised to DMSO); higher = more cells surviving (less toxic)
E57 [2] = patient-derived glioblastoma stem cells of mesenchymal subtype; experiment: as above
E21 [3] = patient-derived glioblastoma stem cells of mesenchymal subtype; experiment: as above
E31 [4] = patient-derived glioblastoma stem cells of proneural subtype; experiment: as above
E13 [5] = patient-derived glioblastoma stem cells of classical subtype; experiment: as above
E34 [6] = patient-derived glioblastoma stem cells of proneural subtype; experiment: as above
E28 [7] = patient-derived glioblastoma stem cells of classical subtype; experiment: as above
FT3469 [8] = experiment: phenotypic distance (Euclidean, principal components) from DMSO controls (arbitrary units); higher = stronger morphological change
E57 [9] = experiment: as above
E21 [10] = experiment: as above
E31 [11] = experiment: as above
E13 [12] = experiment: as above
E34 [13] = experiment: as above
E28 [14] = experiment: as above
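For phenotypic distance (Euclidean, principal components) from DMSO controls in this document: cell Painting imaging in 384-well plates, CellProfiler features reduced to at least 20 principal components, Euclidean distance versus same-plate DMSO vehicle wells (0.1% v/v), median over six images per well.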
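For surviving fraction (nuclei count normalised to DMSO) in this document: nuclei counted by high-content imaging of Hoechst-stained cells in laminin-coated 384-well plates, relative to 0.1% DMSO vehicle wells, with staurosporine as cell-death control.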

O=C(Nc1ccc([N+](=O)[O-])cc1Cl)c1cc(Cl)ccc1O [Niclosamide]
Conditions | phenotypic distance | surviving fraction
E13 [5], 4.1 nM | – | 0.397
E13 [5], 12.3 nM | – | 0.192
E13 [5], 37 nM | – | 0.156
E13 [5], 111.1 nM | – | 0.163
E13 [5], 333.3 nM | – | 0.148
E13 [5], 1000 nM | – | 0.132
E13 [5], 3000 nM | – | 0.117
E13 [12], 4.1 nM | 4.25 | –
E13 [12], 12.3 nM | 4.77 | –
E13 [12], 37 nM | 6.86 | –
E13 [12], 111.1 nM | 9.47 | –
E13 [12], 333.3 nM | 8.21 | –
E13 [12], 1000 nM | 8.6 | –
E13 [12], 3000 nM | 8.06 | –
E21 [3], 4.1 nM | – | 0.602
E21 [3], 12.3 nM | – | 0.363
E21 [3], 37 nM | – | 0.0551
E21 [3], 111.1 nM | – | 0.0103
E21 [3], 333.3 nM | – | 0.0028
E21 [3], 1000 nM | – | 0.00933
E21 [3], 3000 nM | – | 0.00467
E21 [10], 4.1 nM | 4.72 | –
E21 [10], 12.3 nM | 6.44 | –
E21 [10], 37 nM | 6.49 | –
E21 [10], 111.1 nM | 11.8 | –
E21 [10], 333.3 nM | 11.9 | –
E21 [10], 1000 nM | 12.4 | –
E21 [10], 3000 nM | 14 | –
E28 [7], 4.1 nM | – | 0.616
E28 [7], 12.3 nM | – | 0.446
E28 [7], 37 nM | – | 0.147
E28 [7], 111.1 nM | – | 0.0916
E28 [7], 333.3 nM | – | 0.0952
E28 [7], 1000 nM | – | 0.0557
E28 [7], 3000 nM | – | 0.0898
E28 [14], 4.1 nM | 1.99 | –
E28 [14], 12.3 nM | 2.43 | –
E28 [14], 37 nM | 6.04 | –
E28 [14], 111.1 nM | 8.95 | –
E28 [14], 333.3 nM | 7.22 | –
E28 [14], 1000 nM | 8.51 | –
E28 [14], 3000 nM | 7.9 | –
E31 [4], 4.1 nM | – | 0.927
E31 [4], 12.3 nM | – | 0.495
E31 [4], 37 nM | – | 0.132
E31 [4], 111.1 nM | – | 0.072
E31 [4], 333.3 nM | – | 0.0854
E31 [4], 1000 nM | – | 0.0502
E31 [4], 3000 nM | – | 0.0703
E31 [11], 4.1 nM | 3.09 | –
E31 [11], 12.3 nM | 4.78 | –
E31 [11], 37 nM | 5.57 | –
E31 [11], 111.1 nM | 10.1 | –
E31 [11], 333.3 nM | 8.82 | –
E31 [11], 1000 nM | 9.48 | –
E31 [11], 3000 nM | 7.83 | –
E34 [6], 4.1 nM | – | 0.708
E34 [6], 12.3 nM | – | 0.542
E34 [6], 37 nM | – | 0.562
E34 [6], 111.1 nM | – | 0.417
E34 [6], 333.3 nM | – | 0.406
E34 [6], 1000 nM | – | 0.452
E34 [6], 3000 nM | – | 0.331
E34 [13], 4.1 nM | 1.82 | –
E34 [13], 12.3 nM | 2.56 | –
E34 [13], 37 nM | 5.44 | –
E34 [13], 111.1 nM | 8.06 | –
E34 [13], 333.3 nM | 7.5 | –
E34 [13], 1000 nM | 7.96 | –
E34 [13], 3000 nM | 7.89 | –
E57 [2], 4.1 nM | – | 0.572
E57 [2], 12.3 nM | – | 0.303
E57 [2], 37 nM | – | 0.2
E57 [2], 111.1 nM | – | 0.176
E57 [2], 333.3 nM | – | 0.166
E57 [2], 1000 nM | – | 0.136
E57 [2], 3000 nM | – | 0.149
E57 [9], 4.1 nM | 4.23 | –
E57 [9], 12.3 nM | 7.26 | –
E57 [9], 37 nM | 6.17 | –
E57 [9], 111.1 nM | 4.83 | –
E57 [9], 333.3 nM | 6.2 | –
E57 [9], 1000 nM | 6.94 | –
E57 [9], 3000 nM | 6.28 | –
FT3469 [1], 4.1 nM | – | 0.772
FT3469 [1], 12.3 nM | – | 0.654
FT3469 [1], 37 nM | – | 0.297
FT3469 [1], 111.1 nM | – | 0.244
FT3469 [1], 333.3 nM | – | 0.227
FT3469 [1], 1000 nM | – | 0.262
FT3469 [1], 3000 nM | – | 0.28
FT3469 [8], 4.1 nM | 2.28 | –
FT3469 [8], 12.3 nM | 3.48 | –
FT3469 [8], 37 nM | 7.75 | –
FT3469 [8], 111.1 nM | 7.91 | –
FT3469 [8], 333.3 nM | 9.29 | –
FT3469 [8], 1000 nM | 9.03 | –
FT3469 [8], 3000 nM | 10.3 | –

Nc1ccn([C@H]2CC[C@@H](CO)O2)c(=O)n1 [Zalcitabine]
Conditions | phenotypic distance | surviving fraction
E13 [5], 4.1 nM | – | 0.88
E13 [5], 12.3 nM | – | 1.02
E13 [5], 37 nM | – | 1.01
E13 [5], 111.1 nM | – | 0.953
E13 [5], 333.3 nM | – | 0.94
E13 [5], 1000 nM | – | 1.01
E13 [5], 3000 nM | – | 0.913
E13 [12], 4.1 nM | 0.723 | –
E13 [12], 12.3 nM | 0.719 | –
E13 [12], 37 nM | 0.578 | –
E13 [12], 111.1 nM | 0.722 | –
E13 [12], 333.3 nM | 0.483 | –
E13 [12], 1000 nM | 0.498 | –
E13 [12], 3000 nM | 0.729 | –
E21 [3], 4.1 nM | – | 0.917
E21 [3], 12.3 nM | – | 0.894
E21 [3], 37 nM | – | 1.08
E21 [3], 111.1 nM | – | 0.99
E21 [3], 333.3 nM | – | 0.9
E21 [3], 1000 nM | – | 0.987
E21 [3], 3000 nM | – | 0.979
E21 [10], 4.1 nM | 0.578 | –
E21 [10], 12.3 nM | 0.976 | –
E21 [10], 37 nM | 0.36 | –
E21 [10], 111.1 nM | 0.783 | –
E21 [10], 333.3 nM | 0.577 | –
E21 [10], 1000 nM | 0.331 | –
E21 [10], 3000 nM | 0.684 | –
E28 [7], 4.1 nM | – | 1.04
E28 [7], 12.3 nM | – | 1.04
E28 [7], 37 nM | – | 0.97
E28 [7], 111.1 nM | – | 1.13
E28 [7], 333.3 nM | – | 1.01
E28 [7], 1000 nM | – | 1.12
E28 [7], 3000 nM | – | 0.87
E28 [14], 4.1 nM | 0.369 | –
E28 [14], 12.3 nM | 0.351 | –
E28 [14], 37 nM | 0.756 | –
E28 [14], 111.1 nM | 0.552 | –
E28 [14], 333.3 nM | 0.598 | –
E28 [14], 1000 nM | 0.381 | –
E28 [14], 3000 nM | 0.783 | –
E31 [4], 4.1 nM | – | 0.933
E31 [4], 12.3 nM | – | 1.11
E31 [4], 37 nM | – | 0.978
E31 [4], 111.1 nM | – | 1.13
E31 [4], 333.3 nM | – | 0.919
E31 [4], 1000 nM | – | 0.885
E31 [4], 3000 nM | – | 0.972
E31 [11], 4.1 nM | 0.62 | –
E31 [11], 12.3 nM | 0.852 | –
E31 [11], 37 nM | 0.398 | –
E31 [11], 111.1 nM | 0.47 | –
E31 [11], 333.3 nM | 0.46 | –
E31 [11], 1000 nM | 0.667 | –
E31 [11], 3000 nM | 0.528 | –
E34 [6], 4.1 nM | – | 0.869
E34 [6], 12.3 nM | – | 0.954
E34 [6], 37 nM | – | 1.05
E34 [6], 111.1 nM | – | 0.887
E34 [6], 333.3 nM | – | 0.896
E34 [6], 1000 nM | – | 0.977
E34 [6], 3000 nM | – | 0.802
E34 [13], 4.1 nM | 0.915 | –
E34 [13], 12.3 nM | 0.593 | –
E34 [13], 37 nM | 0.379 | –
E34 [13], 111.1 nM | 0.902 | –
E34 [13], 333.3 nM | 1.02 | –
E34 [13], 1000 nM | 0.999 | –
E34 [13], 3000 nM | 0.863 | –
E57 [2], 4.1 nM | – | 1.06
E57 [2], 12.3 nM | – | 0.945
E57 [2], 37 nM | – | 0.991
E57 [2], 111.1 nM | – | 1.09
E57 [2], 333.3 nM | – | 0.982
E57 [2], 1000 nM | – | 1.02
E57 [2], 3000 nM | – | 1.05
E57 [9], 4.1 nM | 1.83 | –
E57 [9], 12.3 nM | 0.448 | –
E57 [9], 37 nM | 0.547 | –
E57 [9], 111.1 nM | 0.703 | –
E57 [9], 333.3 nM | 0.624 | –
E57 [9], 1000 nM | 0.55 | –
E57 [9], 3000 nM | 0.703 | –
FT3469 [1], 4.1 nM | – | 1.11
FT3469 [1], 12.3 nM | – | 1.03
FT3469 [1], 37 nM | – | 0.953
FT3469 [1], 111.1 nM | – | 1.1
FT3469 [1], 333.3 nM | – | 1.02
FT3469 [1], 1000 nM | – | 1.11
FT3469 [1], 3000 nM | – | 0.989
FT3469 [8], 4.1 nM | 3.61 | –
FT3469 [8], 12.3 nM | 0.392 | –
FT3469 [8], 37 nM | 0.547 | –
FT3469 [8], 111.1 nM | 0.849 | –
FT3469 [8], 333.3 nM | 0.603 | –
FT3469 [8], 1000 nM | 0.632 | –
FT3469 [8], 3000 nM | 0.569 | –
